According to patent publication US12577227B2, “WDR5 inhibitors and modulators” (Vanderbilt University, priority 2019, dated 2026):

System: MV4:11 human cancer cell lines
Assay: Cellular viability / anti-proliferative activity (CellTiter-Glo)
Format: cell-based
Conditions: MV4-11, 120 h, MV-4-11 cells, 5 day protocol, mean of minimum two replicates, read-out: GI50 on cellular proliferation of MV4:11 human cancer cell lines
Protocol: Cellular Viability of Human Tumor Cell Lines
Anti-Proliferative Activity Using MLL-Harboring Cell Lines.
MV-4-11 and K562 cells are grown in IMDM media supplemented with 10% FBS and […], Molm-13 cells are cultured in RPMI-1640 media supplemented with 10% FBS and 1% o penicillin/streptomycin. Viability assays are performed by dispensing 200 cells at 7200 cells/mL into each well of an opaque 384-well plate and adding compounds at the indicated concentrations in a final volume of 32 μL and a final concentration of DMSO of 0.3% for all samples. A certain range of compound concentrations is made through a series of 2-fold dilutions starting 30 μM at the highest, total 22 dilutions. After a set incubation period, 5 day protocol, the viability of cells in each well is assessed using the CellTiter-Glo assay (Promega), read on a 96 Microplane Luminometer (Cytation 3, BioTek). Serial dilutions of each cell type are performed in all assays to generate standard curves and the final densities of cells are determined within the dynamic range of the instrument. GI50 values are calculated based on XLfit software (IDBS, Guildford, UK) with Sigmoidal Dose-Response Model. Each compound is tested in minimum of two replicates. Data are expressed as mean.

SMILES	GI50 [nM]
COc1cc(Cn2cnc3c(-c4ccc(F)cc4C)cc(Cn4ccn(C)c4=N)cc3c2=O)cc(OC)c1 [Example 1, 3-(3,5-Dimethoxybenzyl)-8-(4-fluoro-2-methylphenyl)-6-((2-imino-3-methyl-2,3-dihydro-1H-imidazol-1-yl)methyl)quinazolin-4(3H)-one]	150
COc1cc(Cn2cnc3c(-c4ccc(F)cc4C)cc(Cc4c[nH]c5ccccc45)cc3c2=O)cc(OC)c1 [Example 2, 6-((1H-Indol-3-yl)methyl)-3-(3,5-dimethoxybenzyl)-8-(4-fluoro-2-methylphenyl)quinazolin-4(3H)-one]	> 940
COc1cc(CN2CCOc3c(cc(Cn4ccn(C)c4=N)cc3-c3ccc(F)cc3C)C2=O)cc(OC)c1 [Example 3, 4-(3,5-Dimethoxybenzyl)-9-(4-fluoro-2-methylphenyl)-7-((2-imino-3-methyl-2,3-dihydro-1H-imidazol-1-yl)methyl)-3,4-dihydrobenzo[f][1,4]oxazepin-5(2H)-one]	19
COc1cc(Cn2cnc3c(-c4ccc(F)cc4C)cc(Cn4ccc5ccccc54)cc3c2=O)cc(OC)c1 [Example 4, 6-((1H-Indol-1-yl)methyl)-3-(3,5-dimethoxybenzyl)-8-(4-fluoro-2-methylphenyl)quinazolin-4(3H)-one]	> 940
COc1cc(Cn2cnc3c(-c4ccc(F)cc4C)cc(Cn4ccc5cccnc54)cc3c2=O)cc(OC)c1 [Example 5, 6-((1H-Pyrrolo[2,3-b]pyridin-1-yl)methyl)-3-(3,5-dimethoxybenzyl)-8-(4-fluoro-2-methylphenyl)quinazolin-4(3H)-one]	> 940
COc1cc(CN2CCOc3c(cc(Cn4cnn(C)c4=N)cc3-c3ccc(F)cc3C)C2=O)cc(OC)c1 [Example 6, 4-(3,5-Dimethoxybenzyl)-9-(4-fluoro-2-methylphenyl)-7-((5-imino-1-methyl-1,5-dihydro-4H-1,2,4-triazol-4-yl)methyl)-3,4-dihydrobenzo[f][1,4]oxazepin-5(2H)-one]	86
COc1cc(CN2CCOc3c(cc(CNc4nocc4C)cc3-c3ccc(F)cc3C)C2=O)cc(OC)c1 [Example 7, 4-(3,5-Dimethoxybenzyl)-9-(4-fluoro-2-methylphenyl)-7-(((4-methylisoxazol-3-yl)amino)methyl)-3,4-dihydrobenzo[f][1,4]oxazepin-5(2H)-one]	> 940
COc1cc(CN2CCOc3c(cc(Cn4ccccc4=N)cc3-c3ccc(F)cc3C)C2=O)cc(OC)c1 [Example 8, 4-(3,5-Dimethoxybenzyl)-9-(4-fluoro-2-methylphenyl)-7-((2-iminopyridin-1(2H)-yl)methyl)-3,4-dihydrobenzo[f][1,4]oxazepin-5(2H)-one]	355
COc1cc(CN2CCOc3c(cc(Cn4ccoc4=N)cc3-c3ccc(F)cc3C)C2=O)cc(OC)c1 [Example 9, 4-(3,5-Dimethoxybenzyl)-9-(4-fluoro-2-methylphenyl)-7-((2-iminooxazol-3(2H)-yl)methyl)-3,4-dihydrobenzo[f][1,4]oxazepin-5(2H)-one]	259
COc1cc(CN2CCOc3c(cc(CNc4ccccn4)cc3-c3ccc(F)cc3C)C2=O)cc(OC)c1 [Example 10, 4-(3,5-Dimethoxybenzyl)-9-(4-fluoro-2-methylphenyl)-7-((pyridin-2-ylamino)methyl)-3,4-dihydrobenzo[f][1,4]oxazepin-5(2H)-one]	> 940
Cc1ccnc(CN2CCOc3c(cc(Cn4ccn(C)c4=N)cc3-c3ccc(F)cc3C)C2=O)c1 [Example 11, 9-(4-Fluoro-2-methylphenyl)-7-((2-imino-3-methyl-2,3-dihydro-1H-imidazol-1-yl)methyl)-4-((4-methylpyridin-2-yl)methyl)-3,4-dihydrobenzo[f][1,4]oxazepin-5(2H)-one]	11
Cc1cc(C)nc(CN2CCOc3c(cc(Cn4ccn(C)c4=N)cc3-c3ccc(F)cc3C)C2=O)c1 [Example 12, 4-((4,6-Dimethylpyridin-2-yl)methyl)-9-(4-fluoro-2-methylphenyl)-7-((2-imino-3-methyl-2,3-dihydro-1H-imidazol-1-yl)methyl)-3,4-dihydrobenzo[f][1,4]oxazepin-5(2H)-one]	3.5
COc1ccnc(CN2CCOc3c(cc(Cn4ccn(C)c4=N)cc3-c3ccc(F)cc3C)C2=O)c1 [Example 13, 9-(4-Fluoro-2-methylphenyl)-7-((2-imino-3-methyl-2,3-dihydro-1H-imidazol-1-yl)methyl)-4-((4-methoxypyridin-2-yl)methyl)-3,4-dihydrobenzo[f][1,4]oxazepin-5(2H)-one]	12
COc1cc(CN2CC(=O)Nc3c(cc(Cn4ccn(C)c4=N)cc3-c3ccc(F)cc3C)C2=O)cc(OC)c1 [Example 14, 4-(3,5-Dimethoxybenzyl)-9-(4-fluoro-2-methylphenyl)-7-((2-imino-3-methyl-2,3-dihydro-1H-imidazol-1-yl)methyl)-3,4-dihydro-1H-benzo[e][1,4]diazepine-2,5-dione]	167
COc1cc(CN2CCOc3c(cc(Cn4cnn(C)c4=N)cc3-c3cn(C)nc3C(F)(F)F)C2=O)cc(OC)c1 [Example 15, 4-(3,5-Dimethoxybenzyl)-7-((5-imino-1-methyl-1,5-dihydro-4H-1,2,4-triazol-4-yl)methyl)-9-(1-methyl-3-(trifluoromethyl)-1H-pyrazol-4-yl)-3,4-dihydrobenzo[f][1,4]oxazepin-5(2H)-one]	101
COc1cc(CN2CCOc3c(cc(Cn4ccn(C)c4=N)cc3-c3cn(C)nc3C(F)(F)F)C2=O)cc(OC)c1 [Example 16, 4-(3,5-Dimethoxybenzyl)-7-((2-imino-3-methyl-2,3-dihydro-1H-imidazol-1-yl)methyl)-9-(1-methyl-3-(trifluoromethyl)-1H-pyrazol-4-yl)-3,4-dihydrobenzo[f][1,4]oxazepin-5(2H)-one]	79
COc1cc(CN2CC(C)Oc3c(cc(Cn4ccn(C)c4=N)cc3-c3ccc(F)cc3C)C2=O)cc(OC)c1 (centres unmarked) [Example 17, 4-(3,5-Dimethoxybenzyl)-9-(4-fluoro-2-methylphenyl)-7-((2-imino-3-methyl-2,3-dihydro-1H-imidazol-1-yl)methyl)-2-methyl-3,4-dihydrobenzo[f][1,4]oxazepin-5(2H)-one]	22
COc1cc(Cn2cnc3c(-c4ccc(F)cc4C)cc(Cn4cnn(C)c4=N)cc3c2=O)cc(OC)c1 [Example 18, 3-(3,5-Dimethoxybenzyl)-8-(4-fluoro-2-methylphenyl)-6-((5-imino-1-methyl-1,5-dihydro-4H-1,2,4-triazol-4-yl)methyl)quinazolin-4(3H)-one]	672
COc1cc(Cn2cnc3c(-c4ccc(F)cc4C)cc(Cn4ccoc4=N)cc3c2=O)cc(OC)c1 [Example 19, 3-(3,5-Dimethoxybenzyl)-8-(4-fluoro-2-methylphenyl)-6-((2-iminooxazol-3(2H)-yl)methyl)quinazolin-4(3H)-one]	7980
COc1cc(Cn2cnc3c(-c4cn(C)nc4C(F)(F)F)cc(Cn4ccn(C)c4=N)cc3c2=O)cc(OC)c1 [Example 20, 3-(3,5-Dimethoxybenzyl)-6-((2-imino-3-methyl-2,3-dihydro-1H-imidazol-1-yl)methyl)-8-(1-methyl-3-(trifluoromethyl)-1H-pyrazol-4-yl)quinazolin-4(3H)-one]	630
COc1cc(Cn2c(C)nc3c(-c4ccc(F)cc4C)cc(CNC4=NCCN4)cc3c2=O)cc(OC)c1 [Example 21, 6-(((4,5-Dihydro-1H-imidazol-2-yl)amino)methyl)-3-(3,5-dimethoxybenzyl)-8-(4-fluoro-2-methylphenyl)-2-methylquinazolin-4(3H)-one]	194
Cc1cc(C)nc(CN2CCOc3c(cc(Cn4ccn(C)c4=N)cc3-c3cn(C)nc3C(F)(F)F)C2=O)c1 [Example 22, 4-((4,6-Dimethylpyridin-2-yl)methyl)-7-((2-imino-3-methyl-2,3-dihydro-1H-imidazol-1-yl)methyl)-9-(1-methyl-3-(trifluoromethyl)-1H-pyrazol-4-yl)-3,4-dihydrobenzo[f][1,4]oxazepin-5(2H)-one]	173
COc1cc(CN2CNc3c(cc(Cn4ccn(C)c4=N)cc3-c3ccc(F)cc3C)C2=O)cc(OC)c1 [Example 23, 3-(3,5-Dimethoxybenzyl)-8-(4-fluoro-2-methylphenyl)-6-((2-imino-3-methyl-2,3-dihydro-1H-imidazol-1-yl)methyl)-2,3-dihydroquinazolin-4(1H)-one]	92
Cn1cc(-c2cc(Cn3ccn(C)c3=N)cc3c(=O)n(-c4ccccc4-c4ccccc4)cnc23)c(C(F)(F)F)n1 [Example 24, 3-([1,1′-Biphenyl]-2-yl)-6-((2-imino-3-methyl-2,3-dihydro-1H-imidazol-1-yl)methyl)-8-(1-methyl-3-(trifluoromethyl)-1H-pyrazol-4-yl)quinazolin-4(3H)-one]	9010
Cc1ccnc(CN2CCOc3c(cc(Cn4ccnc4C)cc3-c3ccc(F)cc3C)C2=O)c1 [Example 25, 9-(4-Fluoro-2-methylphenyl)-7-((2-methyl-1H-imidazol-1-yl)methyl)-4-((4-methylpyridin-2-yl)methyl)-3,4-dihydrobenzo[f][1,4]oxazepin-5(2H)-one]	300
Cc1cc(C)nc(CN2CCOc3c(cc(Cn4ccnc4C)cc3-c3cn(C)nc3C(F)(F)F)C2=O)c1 [Example 26, 4-((4,6-Dimethylpyridin-2-yl)methyl)-7-((2-methyl-1H-imidazol-1-yl)methyl)-9-(1-methyl-3-(trifluoromethyl)-1H-pyrazol-4-yl)-3,4-dihydrobenzo[f][1,4]oxazepin-5(2H)-one]	135
